# Laboratory results taken from US12077503B2, “Substituted cyclic amides and their use as herbicides” (FMC CORPORATION, priority 2015, dated 2024).
# Tests used:
# Assay type in all cases: in vivo
# corn (Zea mays) [1] = assay: Test G Post-Emergence Protocol; settings: Zea mays, post-emergence, 312 h; for plant injury at 15.625 g/ha: 15.625 g ai/ha, evaluated after 13 days (100=total damage to plant; 0=no damage to plant), read-out: Corn damage rating; for plant injury at 62.5 g/ha: 62.5 g ai/ha, read-out: Corn damage rating (100=total damage to plant; 0=no damage to plant); for plant injury at 62.5 g/ha / plant injury at 250 g/ha: evaluated after 13 days; for plant injury at 250 g/ha: 250 g ai/ha, read-out: damage to plant, Corn (100=total damage to plant; 0=no damage to plant)
# Outline: (§1)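 Sow in soil; grow 8 d (24/16 °C, 14 h light, 65% humidity); spray 15.625/62.5/250 g/ha in acetone:water 50:50 + 0.5% Tween 20; grow on, water twice daily; score damage 0–100 at 13 d.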
# [2] = system: velvetleaf (Abutilon theophrasti); assay: Test G Post-Emergence Protocol; settings: Abutilon theophrasti, post-emergence, 312 h; for pest or weed control at 15.625 g/ha: 15.625 g ai/ha, evaluated after 13 days (100=total damage to plant; 0=no damage to plant), read-out: Velvetleaf damage rating; for pest or weed control at 62.5 g/ha: 62.5 g ai/ha, read-out: Velvetleaf damage rating (100=total damage to plant; 0=no damage to plant); for pest or weed control at 62.5 g/ha / pest or weed control at 250 g/ha: evaluated after 13 days; for pest or weed control at 250 g/ha: 250 g ai/ha, read-out: damage to plant, Velvetleaf (100=total damage to plant; 0=no damage to plant)
# Outline: as §1
# [3] = system: redroot pigweed (Amaranthus retroflexus); assay: Test G Post-Emergence Protocol; settings: Amaranthus retroflexus, post-emergence, 312 h; for pest or weed control at 15.625 g/ha: 15.625 g ai/ha, evaluated after 13 days (100=total damage to plant; 0=no damage to plant), read-out: Pigweed, Redroot damage rating; for pest or weed control at 62.5 g/ha: 62.5 g ai/ha, read-out: Pigweed, Redroot damage rating (100=total damage to plant; 0=no damage to plant); for pest or weed control at 62.5 g/ha / pest or weed control at 250 g/ha: evaluated after 13 days; for pest or weed control at 250 g/ha: 250 g ai/ha, read-out: damage to plant, Pigweed, Redroot (100=total damage to plant; 0=no damage to plant)
# Outline: as §1
# [4] = system: ivy-leaved morning glory (Ipomoea hederacea); assay: Test G Post-Emergence Protocol; settings: Ipomoea, post-emergence, 312 h; for pest or weed control at 15.625 g/ha: 15.625 g ai/ha, evaluated after 13 days (100=total damage to plant; 0=no damage to plant), read-out: Morningglory, Ivy-leaved damage rating; for pest or weed control at 62.5 g/ha: 62.5 g ai/ha, read-out: Morningglory, Ivy-leaved damage rating (100=total damage to plant; 0=no damage to plant); for pest or weed control at 62.5 g/ha / pest or weed control at 250 g/ha: evaluated after 13 days; for pest or weed control at 250 g/ha: 250 g ai/ha, read-out: damage to plant, Morningglory, Ivy-leaved (100=total damage to plant; 0=no damage to plant)
# Outline: as §1
# [5] = system: barnyardgrass (Echinochloa crus-galli); assay: Test G Post-Emergence Protocol; settings: Echinochloa crus-galli, post-emergence, 312 h; for pest or weed control at 15.625 g/ha: 15.625 g ai/ha, evaluated after 13 days (100=total damage to plant; 0=no damage to plant), read-out: Barnyardgrass damage rating; for pest or weed control at 62.5 g/ha: 62.5 g ai/ha, read-out: Barnyardgrass damage rating (100=total damage to plant; 0=no damage to plant); for pest or weed control at 62.5 g/ha / pest or weed control at 250 g/ha: evaluated after 13 days; for pest or weed control at 250 g/ha: 250 g ai/ha, read-out: damage to plant, Barnyardgrass (100=total damage to plant; 0=no damage to plant)
# Outline: as §1
# [6] = system: giant foxtail (Setaria faberi); assay: Test G Post-Emergence Protocol; settings: Setaria faberi, post-emergence, 312 h; for pest or weed control at 15.625 g/ha: 15.625 g ai/ha, evaluated after 13 days (100=total damage to plant; 0=no damage to plant), read-out: Foxtail, Giant damage rating; for pest or weed control at 62.5 g/ha: 62.5 g ai/ha, read-out: Foxtail, Giant damage rating (100=total damage to plant; 0=no damage to plant); for pest or weed control at 62.5 g/ha / pest or weed control at 250 g/ha: evaluated after 13 days; for pest or weed control at 250 g/ha: 250 g ai/ha, read-out: damage to plant, Foxtail, Giant (100=total damage to plant; 0=no damage to plant)
# Outline: as §1
# corn (Zea mays) [7] = assay: Test G Pre-Emergence Protocol; settings: Zea mays, pre-emergence, 312 h, evaluated after 13 days; for plant injury at 15.625 g/ha: 15.625 g ai/ha; for plant injury at 15.625 g/ha / plant injury at 250 g/ha: read-out: Corn damage rating (100=total damage to plant; 0=no damage to plant); for plant injury at 62.5 g/ha: 62.5 g ai/ha, 100=total damage to plant, 0=no damage to plant, read-out: plant damage rating, Corn; for plant injury at 250 g/ha: 250 g ai/ha
# Outline: (§2)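 Pre-emergence spray, 15.625/62.5/250 g/ha, vehicle acetone:water 50:50 + 0.5% Tween 20, applied 1 d after sowing. Glasshouse 24/16° C, 14 h light, 65% RH, watered twice daily. Visual damage rating at 13 d, 0–100 scale.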
# [8] = system: velvetleaf (Abutilon theophrasti); assay: Test G Pre-Emergence Protocol; settings: Abutilon theophrasti, pre-emergence, 312 h, evaluated after 13 days; for pest or weed control at 15.625 g/ha: 15.625 g ai/ha; for pest or weed control at 15.625 g/ha / pest or weed control at 250 g/ha: read-out: Velvetleaf damage rating (100=total damage to plant; 0=no damage to plant); for pest or weed control at 62.5 g/ha: 62.5 g ai/ha, 100=total damage to plant, 0=no damage to plant, read-out: plant damage rating, Velvetleaf; for pest or weed control at 250 g/ha: 250 g ai/ha
# Outline: as §2
# [9] = system: redroot pigweed (Amaranthus retroflexus); assay: Test G Pre-Emergence Protocol; settings: Amaranthus retroflexus, pre-emergence, 312 h, evaluated after 13 days; for pest or weed control at 15.625 g/ha: 15.625 g ai/ha; for pest or weed control at 15.625 g/ha / pest or weed control at 250 g/ha: read-out: Pigweed, Redroot damage rating (100=total damage to plant; 0=no damage to plant); for pest or weed control at 62.5 g/ha: 62.5 g ai/ha, 100=total damage to plant, 0=no damage to plant, read-out: plant damage rating, Pigweed, Redroot; for pest or weed control at 250 g/ha: 250 g ai/ha
# Outline: as §2
# [10] = system: ivy-leaved morning glory (Ipomoea hederacea); assay: Test G Pre-Emergence Protocol; settings: Ipomoea, pre-emergence, 312 h, evaluated after 13 days; for pest or weed control at 15.625 g/ha: 15.625 g ai/ha, read-out: Morning-glory, Ivy-leaved damage rating (100=total damage to plant; 0=no damage to plant); for pest or weed control at 62.5 g/ha: 62.5 g ai/ha, 100=total damage to plant, 0=no damage to plant, read-out: plant damage rating, Morningglory, Ivy-leaved; for pest or weed control at 250 g/ha: 250 g ai/ha, read-out: Morningglory, Ivy-leaved damage rating (100=total damage to plant; 0=no damage to plant)
# Outline: as §2
# [11] = system: barnyardgrass (Echinochloa crus-galli); assay: Test G Pre-Emergence Protocol; settings: Echinochloa crus-galli, pre-emergence, 312 h, evaluated after 13 days; for pest or weed control at 15.625 g/ha: 15.625 g ai/ha, read-out: Barnyard grass damage rating (100=total damage to plant; 0=no damage to plant); for pest or weed control at 62.5 g/ha: 62.5 g ai/ha, 100=total damage to plant, 0=no damage to plant, read-out: plant damage rating, Barnyardgrass; for pest or weed control at 250 g/ha: 250 g ai/ha, read-out: Barnyardgrass damage rating (100=total damage to plant; 0=no damage to plant)
# Outline: as §2
# [12] = system: giant foxtail (Setaria faberi); assay: Test G Pre-Emergence Protocol; settings: Setaria faberi, pre-emergence, 312 h, evaluated after 13 days; for pest or weed control at 15.625 g/ha: 15.625 g ai/ha; for pest or weed control at 15.625 g/ha / pest or weed control at 250 g/ha: read-out: Foxtail, Giant damage rating (100=total damage to plant; 0=no damage to plant); for pest or weed control at 62.5 g/ha: 62.5 g ai/ha, 100=total damage to plant, 0=no damage to plant, read-out: plant damage rating, Foxtail, Giant; for pest or weed control at 250 g/ha: 250 g ai/ha
# Outline: as §2
SMILES,plant injury at 15.625 g/ha (corn (Zea mays) [1]),plant injury at 62.5 g/ha (corn (Zea mays) [1]),plant injury at 250 g/ha (corn (Zea mays) [1]),pest or weed control at 15.625 g/ha [2],pest or weed control at 62.5 g/ha [2],pest or weed control at 250 g/ha [2],pest or weed control at 15.625 g/ha [3],pest or weed control at 62.5 g/ha [3],pest or weed control at 250 g/ha [3],pest or weed control at 15.625 g/ha [4],pest or weed control at 62.5 g/ha [4],pest or weed control at 250 g/ha [4],pest or weed control at 15.625 g/ha [5],pest or weed control at 62.5 g/ha [5],pest or weed control at 250 g/ha [5],pest or weed control at 15.625 g/ha [6],pest or weed control at 62.5 g/ha [6],pest or weed control at 250 g/ha [6],plant injury at 15.625 g/ha (corn (Zea mays) [7]),plant injury at 62.5 g/ha (corn (Zea mays) [7]),also measured
CN1C[C@H](c2ccc(C(F)(F)F)cc2)[C@@H](C(=O)Nc2ccc(Cl)cc2[N+](=O)[O-])C1=O (racemic) [Compound 1432],0%,0%,0%,0%,0%,0%,0%,0%,0%,0%,0%,0%,0%,0%,0%,0%,0%,0%,0%,0%,plant injury at 250 g/ha (corn (Zea mays) [7]): 0%; pest or weed control at 15.625 g/ha [8]: 0%; pest or weed control at 62.5 g/ha [8]: 0%; pest or weed control at 250 g/ha [8]: 0%; pest or weed control at 15.625 g/ha [9]: 0%; pest or weed control at 62.5 g/ha [9]: 0%; pest or weed control at 250 g/ha [9]: 0%; pest or weed control at 15.625 g/ha [10]: 0%; pest or weed control at 62.5 g/ha [10]: 0%; pest or weed control at 250 g/ha [10]: 0%; pest or weed control at 15.625 g/ha [11]: 0%; pest or weed control at 62.5 g/ha [11]: 0%; pest or weed control at 250 g/ha [11]: 0%; pest or weed control at 15.625 g/ha [12]: 0%; pest or weed control at 62.5 g/ha [12]: 0%; pest or weed control at 250 g/ha [12]: 0%
CN1C[C@H](c2ccc(C(F)(F)F)cc2)[C@@H](C(=O)Nc2ccc(F)c(Cl)c2)C1=O (racemic) [Compound 1434],10%,0%,10%,0%,0%,10%,0%,0%,20%,0%,0%,0%,0%,0%,20%,0%,0%,30%,0%,0%,plant injury at 250 g/ha (corn (Zea mays) [7]): 0%; pest or weed control at 15.625 g/ha [8]: 0%; pest or weed control at 62.5 g/ha [8]: 0%; pest or weed control at 250 g/ha [8]: 0%; pest or weed control at 15.625 g/ha [9]: 0%; pest or weed control at 62.5 g/ha [9]: 0%; pest or weed control at 250 g/ha [9]: 0%; pest or weed control at 15.625 g/ha [10]: 0%; pest or weed control at 62.5 g/ha [10]: 0%; pest or weed control at 250 g/ha [10]: 0%; pest or weed control at 15.625 g/ha [11]: 0%; pest or weed control at 62.5 g/ha [11]: 0%; pest or weed control at 250 g/ha [11]: 20%; pest or weed control at 15.625 g/ha [12]: 0%; pest or weed control at 62.5 g/ha [12]: 20%; pest or weed control at 250 g/ha [12]: 50%
